Structures are written as SMILES.

human plasma kallikrein, sequence (P03952 whole entry, looked up): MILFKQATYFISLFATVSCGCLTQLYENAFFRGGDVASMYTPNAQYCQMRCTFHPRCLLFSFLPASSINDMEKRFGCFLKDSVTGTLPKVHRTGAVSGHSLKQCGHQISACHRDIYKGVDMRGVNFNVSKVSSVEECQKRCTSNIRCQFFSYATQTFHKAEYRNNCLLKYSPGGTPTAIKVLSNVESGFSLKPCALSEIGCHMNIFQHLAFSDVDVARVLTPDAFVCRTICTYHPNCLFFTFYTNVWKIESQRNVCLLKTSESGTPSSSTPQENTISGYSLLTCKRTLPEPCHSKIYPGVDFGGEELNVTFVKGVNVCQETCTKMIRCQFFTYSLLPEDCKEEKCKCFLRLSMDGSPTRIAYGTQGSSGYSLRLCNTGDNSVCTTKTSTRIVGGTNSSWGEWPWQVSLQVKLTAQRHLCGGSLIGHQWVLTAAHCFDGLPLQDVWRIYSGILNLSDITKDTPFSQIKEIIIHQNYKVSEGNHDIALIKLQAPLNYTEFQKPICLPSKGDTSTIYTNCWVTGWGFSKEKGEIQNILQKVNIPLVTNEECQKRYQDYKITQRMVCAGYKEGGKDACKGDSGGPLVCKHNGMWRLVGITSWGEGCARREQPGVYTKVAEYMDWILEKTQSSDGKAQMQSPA
human plasma kallikrein, sequence (P03952 whole entry partner, looked up): as the sequence (P03952 whole entry, looked up) above

This assay has as its target human plasma kallikrein (Homo sapiens (Human), UniProt P03952). The following applies: human plasma kallikrein 25 pM, substrate 0.5 uM, 1 hour pre-incubation at room temperature, read at t=60 min.
Protocol: All other chemicals were of analytical grade.
A stock solution of 0.17 mg/ml deinonized water was stored at −80° C. Enzymatic reactions were conducted in ‘assay buffer’, comprising 50 mM Hepes/NaOH at pH 7.8, 150 mM NaCl, 1 mM EDTA and 0.05% (w/v) CHAPS.
Both, enzyme and substrate were diluted in assay buffer.
All protein and peptide containing solutions were handled in siliconized tubes (Life Systems Design, Merenschwand, Switzerland). […] Plate measurements were conducted by the means of a Safire2 reader (TECAN, Maennedorf, Switzerland). The Safire2 is a monochomator-based instrument and wavelengths of 485 nm and 535 nm were taken for fluorescence excitation and emission acquisition, respectively. The bandwidths were set to 10 nm in both the excitation and the emission path. The fluorescence in each well was excited by three flashes per measurement.
The test compound was dissolved in 90% (v/v) DMSO/water. For the assays, 250 nL of the 90% (v/v) DMSO/water solution or compound solution were added per well, followed by the addition of 12.5 μl protease solution (protease in assay buffer). […] After 1 hour of pre-incubation at room temperature, the reactions were started by the addition of 12.5 μl substrate solution (in assay buffer, final assay concentration was 0.5 uM). After the addition of the substrate solution, the final DMSO concentration in the assay was 0.9% (v/v). […] The IC50 value was calculated from the plot of percentage of inhibition vs. inhibitor concentration by a logistics fit according to the following equation: y=A2+(A1−A2)/(1+(x/IC50)^p) where y is the %-inhibition at the inhibitor concentration, x. A1 is the lowest inhibition value, i.e. 0%, and A2 the maximum inhibition value, i.e. 100%. The exponent, p, is the Hill coefficient. The curve fitting was conducted with the non-linear regression routine of the analysis software Origin 7.55R6 (OriginLab Corporation).
The term IC50 denotes the point on the concentration scale where inhibition reaches its midpoint. In turn, `Cc1cc(N)nc(C)c1CNC(=O)c1cc(C)n(S(=O)(=O)c2ccccc2)c1C` [Example 72, N-((6-amino-2,4-dimethylpyridin-3-yl)methyl)-2,5-dimethyl-1-(Phenylsulfonyl)-1H-pyrrole-3-carboxamide] had an IC50 of 937 nM.

`Cc1cc(N)nc(C)c1CNC(=O)c1cnn(Cc2ccc(Cn3ccc(=O)[nH]3)cc2)c1` [Example 139, N-((6-amino-2,4-dimethylpyridin-3-yl)methyl)-1-(4-((3-oxo-2,3-dihydro-1H-pyrazol-1-yl)methyl)benzyl)-1H-pyrazole-4-carboxamide] had an IC50 of 4.9 nM.

`Cc1cc(N)nc(C)c1CNC(=O)c1csc(Cc2ccccc2)n1` [Example 47, N-((6-amino-2,4-dimethylpyridin-3-yl)methyl)-2-benzylthiazole-4-carboxamide]: the IC50 is 3200 nM. In turn, `Cc1cc(N)nc(C)c1CNC(=O)c1cnn(Cc2ccc3c(c2)nnn3C)c1` [Example 101, N-((6-amino-2,4-dimethylpyridin-3-yl)methyl)-1-((1-methyl-1H-benzo[d][1,2,3]triazol-5-yl)methyl)-1H-pyrazole-4-carboxamide] gave an IC50 of 70 nM.

For the molecule `Cc1cc(N)nc(C)c1CNC(=O)c1cnn(Cc2ccc3c(c2)CCS3(=O)=O)c1` [Example 174, N-((6-amino-2,4-dimethylpyridin-3-yl)methyl)-1-((1,1-dioxido-2,3-dihydrobenzo[b]thiophen-5-yl)methyl)-1H-pyrazole-4-carboxamide], half-maximal inhibition (IC50) was put at 75 nM. Then `Cc1cc(N)nc(C)c1CNC(=O)c1ccn(S(=O)(=O)c2ccc3c(c2)N(C)CCO3)c1` [Example 130, N-((6-amino-2,4-dimethylpyridin-3-yl)methyl)-1-(4-methyl-3,4-dihydro-2H-benzo[b][1,4]oxazin-6-ylsulfonyl)-1H-pyrrole-3-carboxamide], with 67 nM; and `Cc1cc(N)nc(C)c1CNC(=O)c1cnn(C(CO)c2ccccc2)c1` (centres unmarked) [Example 11, N-((6-amino-2,4-dimethylpyridin-3-yl)methyl)-1-(2-hydroxy-1-phenylethyl)-1H-pyrazole-4-carboxamide], with 12200 nM; and `Cc1nc(N)cc(OCC(N)=O)c1CNC(=O)c1cnn(Cc2ccccc2)c1` [Example 77, N-((6-amino-4-(2-amino-2-oxoethoxy)-2-methylpyridin-3-yl)methyl)-1-benzyl-1H-pyrazole-4-carboxamide], with 72 nM. Then `Cc1nc(N)cc(Br)c1CNC(=O)c1cnn(Cc2ccccc2)c1` [Example 181, N-((6-Amino-4-bromo-2-methylpyridin-3-yl)methyl)-1-benzyl-1H-pyrazole-4-carboxamide], with 37000 nM. For the molecule `Cc1cc(N)nc(C)c1CNC(=O)c1cnn(Cc2ccc(OC(F)(F)F)cc2)c1` [Example 80, N-((6-amino-2,4-dimethylpyridin-3-yl)methyl)-1-(4-(trifluoromethoxy)benzyl)-1H-pyrazole-4-carboxamide], the concentration for half-maximal inhibition (IC50) worked out at 117 nM. Take `COCCc1cccc(Cn2cc(C(=O)NCc3c(C)cc(N)nc3C)cn2)c1` [Example 71, N-((6-amino-2,4-dimethylpyridin-3-yl)methyl)-1-(3-(2-methoxyethyl)benzyl)-1H-pyrazole-4-carboxamide]: inhibition was half-maximal at 190 nM (IC50). Take `Cc1cc(N)nc(C)c1CNC(=O)c1cnn(Cc2ccnc(N3CCOCC3)c2)c1` [Example 69, N-((6-amino-2,4-dimethylpyridin-3-yl)methyl)-1-((2-morpholinopyridin-4-yl)methyl)-1H-pyrazole-4-carboxamide]: inhibition was half-maximal at 1600 nM (IC50).

Molecule `Cc1cc(N)nc(C)c1CNC(=O)c1cn(Cc2c(F)cccc2F)nn1` [Example 53, N-((6-amino-2,4-dimethylpyridin-3-yl)methyl)-1-(2,6-difluorobenzyl)-1H-1,2,3-triazole-4-carboxamide] showed an IC50 of 3600 nM. In the case of `Cc1cc(N)nc(C)c1CNC(=O)c1cn(Cc2cccc(Cn3ccnc3)c2)nn1` [Example 46, 1-(3-((1H-imidazol-1-yl)methyl)benzyl)-N-((6-amino-2,4-dimethylpyridin-3-yl)methyl)-1H-1,2,3-triazole-4-carboxamide], the IC50 was 1100 nM. Consider `Cc1cc(N)nc(C)c1CNC(=O)c1cnn(Cc2cc(C(F)(F)F)c3cc(F)ccc3n2)c1` [Example 162, N-((6-amino-2,4-dimethylpyridin-3-yl)methyl)-1-((6-fluoro-4-(trifluoromethyl)quinolin-2-yl)methyl)-1H-pyrazole-4-carboxamide], for which half-maximal inhibition (IC50) was put at 5 nM.

Consider `Cc1cc(N)nc(C)c1CNC(=O)c1cc(C)n(C(C)c2ccccc2)c1C` (centres unmarked) [Example 51, N-((6-amino-2,4-dimethylpyridin-3-yl)methyl)-2,5-dimethyl-1-(1-phenylethyl)-1H-pyrrole-3-carboxamide], for which the half-maximal inhibitory concentration (IC50) was 7000 nM.

With `Cc1cc(N)nc(C)c1CNC(=O)c1cnn(Cc2ccc(OCC#N)cc2)c1` [Example 135, N-((6-amino-2,4-dimethylpyridin-3-yl)methyl)-1-(4-(cyanomethoxy)benzyl)-1H-pyrazole-4-carboxamide], the midpoint of inhibition, the IC50, lay at 89 nM. The molecule `Cc1cc(N)nc(C)c1CNC(=O)c1cnn(Cc2ccc(-c3ccncc3)cc2)c1` [Example 114, N-((6-amino-2,4-dimethylpyridin-3-yl)methyl)-1-(4-(pyridin-4-yl)benzyl)-1H-pyrazole-4-carboxamide] returned a half-inhibitory concentration (IC50) of 30 nM.

For `Cc1cc(N)nc(C)c1CNC(=O)c1ccn(S(=O)(=O)c2ccccc2)c1C` [Example 176, N-((6-Amino-2,4-dimethylpyridin-3-yl)methyl)-2-methyl-1-(phenylsulfonyl)-1H-pyrrole-3-carboxamide], the 50% inhibitory concentration (IC50) was 45000 nM. In turn, `Cc1cc(C)c2cc(Cn3cc(C(=O)NCc4ccc(N)nc4C)cn3)c(C)nc2c1` [Example 161, N-((6-amino-2-methylpyridin-3-yl)methyl)-1-((2,5,7-trimethylquinolin-3-yl)methyl)-1H-pyrazole-4-carboxamide] gave a concentration for half-maximal inhibition (IC50) of 4 nM. The figure for `COc1cc(Cn2cc(C(=O)NCc3c(C)cc(N)nc3C)cn2)cc(OC)c1` [Example 73, N-((6-amino-2,4-dimethylpyridin-3-yl)methyl)-1-(3,5-dimethoxybenzyl)-1H-pyrazole-4-carboxamide] is 114 nM. For `Cc1cc(N)nc(C)c1CNC(=O)c1nc(Cc2ccc(Oc3ccccc3)cc2)n[nH]1` [Example 125, N-((6-amino-2,4-dimethylpyridin-3-yl)methyl)-3-(4-phenoxybenzyl)-1H-1,2,4-triazole-5-carboxamide], the concentration for half-maximal inhibition (IC50) was determined as 36 nM. `Cc1cc(N)nc(C)c1CNC(=O)c1cnn(Cc2ccc(S(=O)(=O)N(C)C)cc2)c1` [Example 126, N-((6-amino-2,4-dimethylpyridin-3-yl)methyl)-1-(4-(N,N-dimethylsulfamoyl)benzyl)-1H-pyrazole-4-carboxamide]: the IC50 worked out at 670 nM. The figure for `COc1ccc(Cc2nc(C(=O)NCc3c(C)cc(N)nc3C)co2)cc1` [Example 8, N-((6-amino-2,4-dimethylpyridin-3-yl)methyl)-2-(4-methoxybenzyl)oxazole-4-carboxamide] is 2640 nM. Then `Cc1cc(N)nc(C)c1CNC(=O)c1cnn(Cc2nc3ccccc3s2)c1` [Example 105, N-((6-amino-2,4-dimethylpyridin-3-yl)methyl)-1-(benzo[d]thiazol-2-ylmethyl)-1H-pyrazole-4-carboxamide], with 168 nM. `Cc1cc(N)nc(C)c1CNC(=O)c1cn(Cc2ccccc2C#N)c2ccccc12` [Example 107, N-((6-amino-2,4-dimethylpyridin-3-yl)methyl)-1-(2-cyanobenzyl)-1H-indole-3-carboxamide]: it took 1800 nM to reach half-maximal inhibition (IC50).

For the molecule `Cc1cc(N)nc(C)c1CNC(=O)c1ccc(Oc2ccccc2)o1` [Example 48, N-((6-amino-2,4-dimethylpyridin-3-yl)methyl)-5-phenoxyfuran-2-carboxamide], the IC50 turned out to be 35500 nM.

`Cc1cc(N)nc(C)c1CNC(=O)c1cnn(Cc2ccc(F)c(F)c2)c1` [Example 90, N-((6-amino-2,4-dimethylpyridin-3-yl)methyl)-1-(3,4-difluorobenzyl)-1H-pyrazole-4-carboxamide] gave an IC50 of 2000 nM. `Cc1nc(N)cc(OCC(=O)C(C)(C)C)c1CNC(=O)c1cnn(Cc2ccc3ccccc3c2)c1` [Example 149, N-((6-amino-4-(3,3-dimethyl-2-oxobutoxy)-2-methylpyridin-3yl)methyl)-1-(naphthalen-2-ylmethyl)-1H-pyrazole-4-carboxamide] returned a 50% inhibitory concentration (IC50) of 7.8 nM. Then `Cc1cc(N)nc(C)c1CNC(=O)c1cnn(Cc2cc3ccsc3c(N)n2)c1` [Example 171, N-((6-Amino-2,4-dimethylpyridin-3-yl)methyl)-1-((7-aminothieno[2,3-c]pyridin-5-yl)methyl)-1H-pyrazole-4-carboxamide], with 26 nM; and `Cc1cc(N)nc(C)c1CNC(=O)c1cnn(Cc2ccc(C#N)cc2)c1` [Example 82, N-((6-amino-2,4-dimethylpyridin-3-yl)methyl)-1-(4-cyanobenzyl)-1H-pyrazole-4-carboxamide], with 678 nM; and `Cc1cc(N)nc(C)c1CNC(=O)c1cn(Cc2cccc3ccccc23)nn1` [Example 39, N-((6-amino-2,4-dimethylpyridin-3-yl)methyl)-1-(naphthalen-1-ylmethyl)-1H-1,2,3-triazole-4-carboxamide], with 634 nM. `Cc1cc(N)nc(C)c1CNC(=O)c1cnn(Cc2ccc(Cn3ccnn3)cc2)c1` [Example 140, 1-(4-((1H-1,2,3-triazol-1-yl)methyl)benzyl)-N-((6-amino-2,4-dimethylpyridin-3-yl)methyl)-1H-pyrazole-4-carboxamide] gave a concentration for half-maximal inhibition (IC50) of 4.6 nM. Consider `Cc1cc(N)nc(C)c1CNC(=O)c1nc(Cc2ccccc2)no1` [Example 5, N-((6-amino-2,4-dimethylpyridin-3-yl)methyl)-3-benzyl-1,2,4-oxadiazole-5-carboxamide], for which inhibition was half-maximal at 4500 nM (IC50).

On to `Cc1cc(N)nc(C)c1CNC(=O)c1cn(Cc2ccc(Oc3ccccc3)cc2)cn1` [Example 23, N-((6-amino-2,4-dimethylpyridin-3-yl)methyl)-1-(4-phenoxybenzyl)-1H-imidazole-4-carboxamide], for which it took 9 nM to reach half-maximal inhibition (IC50).

(Values after US9290485B2, “N-((6-amino-pyridin-3-yl)methyl)-heteroaryl-carboxamides” (NOVARTIS AG, priority 2010, dated 2016).)
